Reference: article PMC7934871 (JCI Insight, 2021)

Assays:
[1] = system: STAT3-regulated genes; assay: Expression of STAT3 targets in HCT116 cells (Western blotting, qPCR); format: cell-based, human
Text: Figure 3 PS-acet.-STAT3 peptide inhibits STAT3 activity and downregulates the expression of STAT3 targets. (A) Downregulation of STAT3 activity and its downstream target proteins shown in human HCT116 colorectal cancer cells by Western blotting (data represent 1 of the 3 experiments, n = 3). PO-acet.-STAT3 and PS-STAT3-K685R peptides were used in parallel as controls. (B) STAT3 inhibition regulated the expression of proliferation and apoptotic genes, assessed by real-time quantitative PCR. Data present mean ± SD, n = 3 independent experiments, 1-way ANOVA; ***P < 0.005; **P < 0.01. […] For p53 promoter assay, data represent 3 replicates in 3 independent experiments (n = 9). […]
Whole cell lysates or tissue homogenates were prepared by using RIPA lysis buffer (50 mM Tris at pH 7.4, 150 mM NaCl, 1 mM EDTA, 0.5% NP-40, 1 mM NaF, 15% glycerol, and 20 mM β-glycerophosphate). […] Protein amounts were determined by BCA using a Thermo Fisher Scientific kit. […]
Total RNA was extracted from cultured or tumor tissues using RNeasy kit (QIAGEN), according to manufacturer’s instruction. After cDNA synthesis using iScript cDNA Synthesis kit (Bio-Rad), samples were analyzed using pairs of primers specific for CASP9, CASP3, CASP8, BIRC5, BCL2L1, MYC, TP53, VEGF, IL1B, SERPIN3, FGA, CDK4, CCND2, CDKN2A, CDKN2B, GADD45A, mCD274, mMmp9, and mBirc5, as indicated. […]

[2] = target: T1, STAT3-exportin 7 interaction (Homo sapiens, UniProt Q9UIA9); assay: Immunoprecipitation from HCT116 tumor homogenates, STAT3-exportin 7 interaction; format: binding; conditions: homogenates of HCT116 tumors from treated mice, Western blotting
T1 construct: homogenates prepared from HCT116 colon tumors from mice treated with PO- and PS-acet.-STAT3 peptides; from tissue; host or cells: HCT116 xenograft tumours grown in NSG mice
T1 sequence (Q9UIA9 2-1087 limits assumed): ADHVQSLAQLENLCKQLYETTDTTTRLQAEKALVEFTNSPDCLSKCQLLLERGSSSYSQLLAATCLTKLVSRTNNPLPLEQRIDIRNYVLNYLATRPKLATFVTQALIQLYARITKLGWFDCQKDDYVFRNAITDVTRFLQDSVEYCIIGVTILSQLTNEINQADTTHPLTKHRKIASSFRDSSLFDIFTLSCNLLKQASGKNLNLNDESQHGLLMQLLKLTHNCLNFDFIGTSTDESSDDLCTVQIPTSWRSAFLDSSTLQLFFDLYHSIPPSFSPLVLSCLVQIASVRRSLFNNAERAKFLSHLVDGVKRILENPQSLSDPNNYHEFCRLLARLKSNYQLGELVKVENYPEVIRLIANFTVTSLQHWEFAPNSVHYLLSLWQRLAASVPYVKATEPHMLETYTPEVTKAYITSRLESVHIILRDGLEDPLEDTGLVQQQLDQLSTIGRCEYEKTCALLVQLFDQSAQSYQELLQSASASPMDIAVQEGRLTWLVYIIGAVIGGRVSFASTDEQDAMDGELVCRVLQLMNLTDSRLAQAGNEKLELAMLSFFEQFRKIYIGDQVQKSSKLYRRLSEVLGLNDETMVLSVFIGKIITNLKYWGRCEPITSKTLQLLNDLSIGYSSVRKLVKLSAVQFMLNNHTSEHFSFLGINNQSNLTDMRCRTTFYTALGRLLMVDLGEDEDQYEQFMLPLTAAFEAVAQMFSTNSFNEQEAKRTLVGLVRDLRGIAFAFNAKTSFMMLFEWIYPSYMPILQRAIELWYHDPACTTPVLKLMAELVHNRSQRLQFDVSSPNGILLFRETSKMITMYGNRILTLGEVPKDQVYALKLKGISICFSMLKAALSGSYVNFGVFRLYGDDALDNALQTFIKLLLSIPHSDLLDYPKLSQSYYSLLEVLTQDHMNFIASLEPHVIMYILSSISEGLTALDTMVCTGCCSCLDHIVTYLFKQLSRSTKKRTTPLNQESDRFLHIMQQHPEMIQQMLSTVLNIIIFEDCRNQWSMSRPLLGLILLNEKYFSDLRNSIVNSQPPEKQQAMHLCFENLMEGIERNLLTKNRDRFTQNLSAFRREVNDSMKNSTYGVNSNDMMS
Description: Whole cell lysates or tissue homogenates were prepared by using RIPA lysis buffer (50 mM Tris at pH 7.4, 150 mM NaCl, 1 mM EDTA, 0.5% NP-40, 1 mM NaF, 15% glycerol, and 20 mM β-glycerophosphate). A protease inhibitor cocktail (Mini Protease Inhibitor Cocktail; Roche) and a tyrosine phosphatase inhibitor, sodium orthovanadate (Na3VO4, 1 mM), were added freshly to the lysis buffer. Protein amounts were determined by BCA using a Thermo Fisher Scientific kit. Normalized protein amounts were subjected to an SDS-PAGE and transferred onto a nitrocellulose membrane for Western blotting. Proteins were visualized with a chemiluminescent detection kit (Pierce, Thermo Fisher Scientific). The protein levels for STAT1 (sc-346, E-23), STAT3 (sc-482, C-20), STAT5 (sc-74442, A-9), Crm1 (exportin 1) (sc-5595, H-300), CAS (exportin 2) (sc-271537, H-2), exportin 5 (sc-66885, H-300), and exportin 7 (sc-98639, H-82) were determined using antibodies from Santa Cruz Biotechnology Inc. Anti–exportin 3 (exportin T, 630622, LOS1 05-1525), anti–exportin 4 (3499-1), and anti–exportin 6 (11408-1-AP) were from MilliporeSigma, Epitomics, and Proteintech, respectively. […]
(B) PS-acet.-STAT3 peptide downregulates STAT3 phosphorylation, assessed by Western blotting using tumor homogenates prepared from tumors shown in A. […]

[3] = system: CRC patient primary tumor spheres
Description: TAMRA-acet.-STAT3 (red fluorescence) and PO-FAM-acet.-STAT3 (green fluorescence)
peptides were incubated with patient primary tumor sphere for 4 hours and the cell penetration
was visualized by confocal microscopy. Scale bar: 50 µm.
(D) The primary CRC tumor cells derived from PDX were treated with different concentrations of
PO- or PS-acet.-STAT3 peptide as indicated for 3 days. The cell viability was measured by
CellTiter Glo assay and normalized with vehicle (HBSS) treatment. Data represent 3
independent experiments (n=3). SD is shown. Unpaired Student’s t-test ****; P< 0.001; **, P<
(E) Gene expression of MYC, MMP9 and BIRC5 was detected by qPCR and normalized with
ACTB after vehicle, 1 µM of PO-or PS-acet.-STAT3 peptide treatment with CRC PDX tumor
cells. Data represent 3 independent experiments (n=3). SD is shown. One-way ANOVA. ****; P<

Substance: PDIPKEEAFGK685(Ac)YCRPESQEHPC-linker-T*C*C*A*T*G*A*G*C*T*T*C*C*T*G*A*T*G*C*T [PS-acet.-STAT3 peptide]
- expression of STAT3-regulated genes Survivin (BIRC5) and MYC, protein and mRNA ([1]; HCT116, approximately 1 μM): significant downregulation
- expression of STAT3-suppressed apoptotic genes TP53, CASP9, CASP3 ([1]; HCT116 and LoVo, real-time quantitative PCR): upregulated
- STAT3 binding to exportin 7 in tumor tissues [2]: blocked
- binding to exportin 7 in tumor tissues [2]: bound
- effects on cell proliferation and gene expression of STAT3 target genes in patient primary tumor spheres ([3]; 3 days, CellTiter Glo, 1 µM, qPCR of MYC, MMP9, BIRC5, n = 3): significant inhibitory effects
- cell permeability in patient primary tumor spheres ([3]; not told): high cell permeability
